Measured values from patent US4656178A (priority 1985, dated 1987).
Counter-ions that a name gives are not always drawn.

How the values were obtained:
[1] = solubility; type: physicochemical
Experimental: The aerial portion and roots (tubers) of the plant Acontium leucostomum are disintegrated. The disintegrated air-dry raw material is wetted with a 3% solution of sodium carbonate and 1 hour thereafter is poured with chloroform. 12 hours afterwards the chloroform is drained and the plant is treated with a fresh portion of chloroform. There are thus obtained 8 extracts which are combined and evaporated under vacuum to a small volume. From the concentrated chloroform extract the alkaloids are recovered by means of a 2% sulphuric acid. The combined acid extracts are washed with chloroform, alkalinized by soda and extracted with chloroform. The chloroform extract is evaporated and the residue is treated with acetone to give a commercial product--lappaconitine which is recrystallized from methanol. Methanolic solution of lappaconitine and hydrobromic acid are mixed. […] M.p. is 216°-220° C., [α]D^24 =+27 (alcohol); C32 H44 O8 N2.HBr, molecular weight= 664.9.

[2] = effect on arterial pressure and breathing in narcotized cats and dogs; type: in vivo; conditions: intravenous, 0.05, 0.1, 0.5, 1 mg/kg
Text: With the view to evaluate the effect of the preparation according to the present invention on arterial pressure and breathing, experiments have been carried out on narcotized cats and dogs.

[3] = sugar, protein and enzymes in rats' blood; type: in vivo; conditions: 1 mg/kg, single and lasting administration
[4] = infiltration anesthesia in rabbits (intracutaneous); type: in vivo; conditions: 0.01-0.05% and 0.1% solutions
Experimental: (§1) The local anesthetic effect of the preparation was studied on 14 intact rabbits. […] The results of the experiments on determination of the ability of the preparation to cause infiltration anesthesia have shown that 10-15 minutes after intracutaneous administration, to rabbits, of 0.01-0.05% and 0.1% solutions of the preparation anesthesia occurs which is characterized by an increased threshold of a pain irritation; the duration of the effect is 20 to 48 hours. Under the same conditions of the experiment, the local anesthetic effect of a 0.5% solution of novocaine lasts for 90 minutes on the average.

[5] = antiinflammatory effect; type: in vivo; conditions: doses of 1-5 mg/kg
[6] = test system: aconitine arrhythmia; assay: prevention of aconitine arrhythmia in rats and dogs; type: in vivo
Experimental: (§2) The atrioventricular arrhythmia caused by aconitine is one of the most reliable models for forecasting the efficiency of the antiarrhythmic action of the novel preparation in clinics. The experiments were conducted on both narcotized and non-narcotized animals. The preparation was administered per os, intramuscularly, intraperitoneally and intravenously 5 to 15 minutes prior to or 3-5 minutes after the administration of aconitine.
The duration of the antiarrhythmic action of the preparation was studied on rats intravenously administered with aconitine 1, 2, 4, 6, 24 and 48 hours after the preparation administration per os.

[7] = test system: coronary blood circulation; assay: volume rate of the coronary blood flow in cats; type: in vivo
Experimental: The effect of the pharmaceutical composition according to the present invention on the coronary blood circulation was studied in acute experiments on cats by the method of recording of the volume rate of the coronary blood flow. […] The introduction of 1 mg/kg of the preparation results in an increased volume rate of the coronary blood flow by 30-80% during a long time.

[8] = lethal dose in rabbits; type: in vivo
Experimental: (§3) The resorptive effect and toxicity of the preparation according to the present invention were studied on mice, rats, rabbits and dogs.
(§4) In doses of 5-6 mg/kg intravenously the preparation according to the present invention causes death of dogs and in doses of 3-4 mg/kg it is lethal for rabbits.

[9] = 6-month histological toxicity, dogs; type: in vivo; conditions: per os, 1 and 5 mg/kg, 6 months
[10] = test system: frog's heart; assay: amplitude of cardiac contractions of isolated frog's heart (Schtraube); conditions: concentration of 10^-6 -5.10^-5 g/ml
Text: (§5) To find out a negative inotropic effect on the heart tissue, two series of experiments have been carried out:
(1) the study of the effect of the preparation of this invention on the amplitude of the cardiac contractions of a frog's heart isolated according to Schtraube;

[11] = allergenic effect; type: in vivo; conditions: 12 guinea pigs and 6 rabbits
[12] = local anesthetic effect in intact rabbits; type: in vivo
Experimental: as §1

[13] = teratogenicity in pregnant rats; type: in vivo; conditions: 317 pregnant rats, 2,377 feti
[14] = lethal dose in dogs; type: in vivo; conditions: intravenous
Experimental: as §3, §4

[15] = diuresis and urine of rats; type: in vivo; conditions: 0.5-1 mg/kg
[16] = carcinogenicity; type: in vivo; conditions: subcutaneously and per os, 0.5-2 mg/kg, 6 months, observation 2 years
[17] = test system: calcium channels of the membrane of neurons; assay: ion currents through the somatic membrane of mollusc neurons: calcium channels; type: cell-based, mollusca
Text: The study of the effect produced by the preparation of the present invention on ion currents through the somatic membrane of neurons has shown that it selectively interacts with calcium and potassium channels of the membrane of neurons of mollusca, whereby the currents along these channels are suppressed.

[18] = test system: arrhythmia caused by electrical irritation; assay: arrhythmia caused by electrical irritation of the right auricle and apex of the left ventricle; type: in vivo, dogs and cats
[19] = test system: cardiac contractions; assay: strength of cardiac contractions in narcotized rats and guinea pigs; type: in vivo; conditions: intravenous, 0.1, 0.5, 1, 2 mg/kg
Experimental: as §5
(2) the study of the preparation according to the present invention on the strength of cardiac contractions on narcotized (sodium ethaminal, 50-60 mg/kg intraperitoneally) rats and guinea pigs.

[20] = test system: aconitine arrhythmia; type: in vivo, rats
Experimental: as §2
The antiarrhythmic activity of the pharmaceutical composition according to the present invention upon administration thereof against the background of a developing aconitine arrhythmia (therapeutic effect) was studied on 110 narcotized rats. The preparation was intravenously administered at intervals of 3-6 minutes against the background of the originated arrhythmia.

For `CCN1CC2(OC(=O)c3ccccc3NC(C)=O)CCC(OC)C34C1C(CC23)C1(O)CC(OC)C2CC4C1(O)C2OC` (stereo not shown) [lappaconitine hydrobromide], the solubility [1] was “soluble in water, alcohol, better in methanol”, the “influence on arterial pressure and breathing” value [2] was “did not exert any influence on the arterial pressure and breathing” and the “content of sugar, protein and enzymes in blood” value [3] was “does not result in substantial changes”. The “duration of infiltration anesthesia” value [4] was 20 to 48 h, the “onset of infiltration anesthesia” value ([4]; intracutaneous) was 10 to 15 min and the antiinflammatory effect [5] was “pronounced antiinflammatory effect”. For the same molecule, the “duration of antiarrhythmic action” value ([6]; aconitine model) was “up to 24 hours”, the “animals in which development of aconitine arrhythmia is fully prevented” value ([6]; intravenous, 0.2-0.3 mg/kg, narcotized rats and dogs) was 100% and the “animals in which development of aconitine arrhythmia is fully prevented” value ([6]; peroral, 1-2 mg/kg, dogs and intact rats) was 100%. The “animals with increased coronary blood flow” value ([7]; 0.5 mg/kg) was 40%, the “increase of coronary blood flow” value ([7]; 0.5 mg/kg, in 40% of the animals) was 15-30% and the “increase of volume rate of coronary blood flow” value ([7]; 1 mg/kg, during a long time) was 30-80%. The “effect on coronary blood flow” value ([7]; intravenous, 0.1 mg/kg) was “does not provide any effect”, the lethal dose [8] was 3 to 4 mg/kg and the “destructive changes of inner organs and tissues” value [9] was “no destructive changes on the part of inner organs and tissues”. The “negative inotropic effect, isolated heart” value [10] was “does not provide a negative inotropic effect”, the allergenic effect [11] was “no allergenic effect” and the “anesthetic activity relative to tetracaine hydrochloride” value ([12]; 14 intact rabbits) was “matches tetracaine hydrochloride in its anesthetic activity”. The “depth of anesthesia relative to tetracaine hydrochloride” value ([12]; rabbit, in vivo) was “inferior to tetracaine hydrochloride”, the “duration of anesthetic effect relative to tetracaine hydrochloride” value ([12]; rabbit, in vivo) was “more than 6 times” and the teratogenicity [13] was “not a potentially teratogenic substance”. The lethal dose [14] was 5 to 6 mg/kg, the effect on diuresis [15] was “no effect on diuresis of rats” and the “protein and blood in urine” value ([15]; sulphanylic acid test and benzidine test) was “not detected”. The carcinogenic properties [16] was “no carcinogenic properties”, the “effect on currents along calcium channels” value [17] was “suppressed” and the “arterial pressure and amplitude of the heart beat” value ([18]; 0.25 and 0.5 mg/kg) was “not changed”. The “duration of antiarrhythmic effect” value ([18]; 0.25 and 0.5 mg/kg) was 2 to 3 h, the “arrest of arrhythmia caused by electrical irritation” value ([18]; 0.25 and 0.5 mg/kg intravenously, 7 dogs and 10 cats) was “fully stops the origination of arrhythmia” and the “onset of antiarrhythmic effect” value ([18]; after administration, 0.25 and 0.5 mg/kg) was 3 to 7 min. The “activity relative to quinidine and novocainamide (times superior)” value ([18]; dog, in vivo) was 40 times, the “influence on amplitude of cardiac contractions” value [19] was “no influence on the amplitude of cardiac contractions” and the “animals with complete restoration of normal sinus rhythm” value ([20]; 0.1 mg/kg intravenously) was 50%. The “time to restoration of normal sinus rhythm” value ([20]; 0.1 mg/kg, control arrhythmia lasts 120 minutes) was 30 to 35 min, the “complete elimination of arrhythmia and restoration of correct sinus rhythm” value ([20]; 0.3 to 0.5 mg/kg) was “complete elimination of arrhythmia and restoration of the correct sinus rhythm in all the animals” and the “time to complete elimination of arrhythmia” value ([20]; 0.3 to 0.5 mg/kg) was 1 to 2 min. For the same molecule, the “antiarrhythmic index (LD50/ED50)” value ([20]; against background of developing aconitine arrhythmia) was 59.
